Earlier results, collected in patent publication US20080146639A1, “Pharmaceutical Combination of Angiotensin II Antagonists and Angiotensin I Converting Enzyme Inhibitors” (Boehringer Ingelheim Pharma GmbH & Co Kg., priority 2000, published 2008).

Settings: treatment with ACE inhibitor ramipril; HOPE study (New Engl. J. Med., Jan. 20, 2000)

SMILES: CCOC(=O)[C@H](CCc1ccccc1)N[C@@H](C)C(=O)N1[C@H](C(=O)O)C[C@@H]2CCC[C@@H]21 [ramipril]
- reduction of the risk of the combined primary cardiovascular outcome: 22%
